Values quoted from earlier work, collected in patent US20240050950A1, “GRADIENT-BASED MICROFLUIDIC CIRCUIT, DEVICE, AND METHOD FOR PERFORMING AN ASSAY” (priority 2020, published 2024).
Where a name gives a salt, the structure may show the parent alone. Read-outs that look alike come from different tables or passages of the source.

Conditions: cited from earlier work
[1] = Table 1, antimicrobial agents/drugs
[2] = Table 3, antifungal drugs and other molecules

Row | SMILES | Molar volume (Table 2, anticancer drugs) | Molar volume [1] | other results
1 | CC(C)(O)CNc1nc(Nc2ccnc(C(F)(F)F)c2)nc(-c2cccc(C(F)(F)F)n2)n1 [Enasidenib Mesylate] | 320.4 ± 3.0 cm^3 | – | –
2 | CCN1CCN(c2cc3c(cc2F)c(=O)c(C(=O)O)cn3C2CC2)CC1 [Enrofloxacin (Baytril), Enrofloxacin] | – | 259.3 ± 3.0 cm^3 | –
3 | CNC(=O)c1ccc(N2C(=S)N(c3ccc(C#N)c(C(F)(F)F)c3)C(=O)C2(C)C)cc1F [Enzalutamide (Xtandi), Enzalutamide] | 310.0 ± 5.0 cm^3 | – | –
4 | C=C1C[C@@H]2CC[C@@]34C[C@H]5O[C@H]6[C@@H](O3)[C@H]3O[C@H](CC[C@@H]3O[C@H]6[C@H]5O4)CC(=O)C[C@@H]3[C@@H](OC)[C@@H](C[C@H](O)CN)O[C@H]3C[C@H]3O[C@@H](CC[C@@H]1O2)C[C@@H](C)C3=C [Eribulin Mesylate] | 563.2 ± 5.0 cm^3 | – | –
5 | C#Cc1cccc(Nc2ncnc3cc(OCCOC)c(OCCOC)cc23)c1 [Erlotinib Hydrochloride (Tarceva), Erlotinib Hydrochloride] | 315.4 ± 5.0 cm^3 | – | –
6 | CC[C@@H](CO)NCCN[C@@H](CC)CO [Ethambutol ((+)-S,S-Ethambutol), Ethambutol] | – | 207.0 ± 3.0 cm^3 | –
7 | COc1cc([C@@H]2c3cc4c(cc3[C@@H](O[C@@H]3O[C@@H]5CO[C@@H](C)O[C@H]5[C@H](O)[C@H]3O)[C@H]3COC(=O)[C@H]23)OCO4)cc(OC)c1OP(=O)(O)O [Etopophos (Etoposide Phosphate), Etoposide Phosphate] | 406.7 ± 5.0 cm^3 | – | –
8 | COc1cc([C@@H]2c3cc4c(cc3[C@@H](O[C@@H]3O[C@@H]5CO[C@@H](C)O[C@H]5[C@H](O)[C@H]3O)[C@H]3COC(=O)[C@H]23)OCO4)cc(OC)c1O [Etoposide] | – | 378.5 ± 5.0 cm^3 | –
9 | CN(C)CCOc1ccc(/C(=C(/CCCl)c2ccccc2)c2ccccc2)cc1 [Fareston (Toremifene), Toremifene] | 367.6 ± 3.0 cm^3 | – | –
10 | C[C@]12CC[C@@H]3c4ccc(O)cc4C[C@@H](CCCCCCCCC[S+]([O-])CCCC(F)(F)C(F)(F)F)[C@H]3[C@@H]1CC[C@@H]2O (stereo partly shown) [Faslodex (Fulvestrant), Fulvestrant] | 505.1 ± 3.0 cm^3 | – | –
11 | N#Cc1ccc(C(c2ccc(C#N)cc2)n2cncn2)cc1 [Femara (Letrozole), Letrozole] | 234.5 ± 7.0 cm^3 | – | –
12 | Cc1ccc(C(=O)N2CCN(c3ccc([N+](=O)[O-])cc3)CC2)cc1Cl [Filastatin] | – | – | Molar volume [2]: 269.8 ± 3.0 cm^3
13 | CCCCC[C@@H](O)[C@H]1C(=O)O[C@H](C)[C@@H](O)/C=C/C=C/C=C/C=C/C=C(\C)[C@@H](O)C[C@H](O)C[C@H](O)C[C@H](O)C[C@H](O)C[C@H](O)C[C@@H]1O [Filipin] | – | – | Molar volume [2]: 563.7 ± 3.0 cm^3
14 | CS(=O)(=O)c1ccc([C@@H](O)[C@@H](CF)NC(=O)C(Cl)Cl)cc1 [Florfenicol (Aquafen, Nuflor), Florfenicol] | – | 246.7 ± 3.0 cm^3 | –
15 | COC(=O)Nc1nc2cc(C(=O)c3ccc(F)cc3)ccc2[nH]1 [Flubendazol (Flumoxanal), Flubendazol] | – | 216.8 ± 3.0 cm^3 | –
16 | OC(Cn1cncn1)(Cn1cncn1)c1ccc(F)cc1F [Fluconazole] | – | 205.2 ± 7.0 cm^3 | Molar volume [2]: 205.2 cm^3
17 | CC(C(=O)O)c1ccc(-c2ccccc2)c(F)c1 (stereo not shown) [Flurbiprofen] | – | 203.6 ± 3.0 cm^3 | –
18 | C#CCC(Cc1cnc2nc(N)nc(N)c2n1)c1ccc(C(=O)N[C@@H](CCC(=O)O)C(=O)O)cc1 (stereo partly shown) [Folotyn (Pralatrexate), Pralatrexate] | 324.5 ± 3.0 cm^3 | – | –
19 | Nc1ncnc2c([C@@H]3O[C@H](CO)[C@@H](O)[C@H]3O)[nH]nc12 [Formycin A] | – | 128.1 ± 7.0 cm^3 | –
20 | CO[C@@H]1[C@H](OC(=O)/C=C/C=C/C=C/C=C/C(=O)O)CC[C@]2(CO2)[C@H]1[C@@]1(C)O[C@@H]1CC=C(C)C [Fumagillin] | – | 383.2 ± 5.0 cm^3 | –

Row | SMILES | Molar volume (Table 2, anticancer drugs) | Molar volume [1] | other results
21 | CCCCc1ccc(C(=O)O)nc1 [Fusaric acid (5-Butylpicolinic acid), 5-Butylpicolinic acid] | – | 161.0 ± 3.0 cm^3 | –
22 | Nc1nc(=O)c2c([nH]1)NCC(CNc1ccc(C(=O)N[C@@H](CCC(=O)[O-])C(=O)[O-])cc1)N2C=O.[Ca+2] (stereo partly shown) [Fusilev (Leucovorin Calcium), Leucovorin Calcium] | 280.7 ± 7.0 cm^3 | – | –
23 | CN[C@@H]1[C@@H](O)[C@@H](O[C@@H]2[C@@H](O)[C@H](O[C@H]3O[C@H]([C@@H](C)O)[C@@H](O)[C@H](O)[C@H]3N)[C@@H](N)C[C@H]2N)OC[C@]1(C)O [G 418] | – | 336.3 ± 5.0 cm^3 | –
24 | O=C[C@H](O)[C@@H](O)[C@@H](O)[C@H](O)CO [Galactose] | – | – | Molar volume [2]: 104.0 cm^3
25 | Nc1nc(O)c2ncn(COC(CO)CO)c2n1 [Ganciclovir] | – | 140.5 ± 7.0 cm^3 | –
26 | COc1c(N2CCNC(C)C2)c(F)cc2c(=O)c(C(=O)O)cn(C3CC3)c12 (stereo not shown) [Gatifloxacin] | – | 270.7 ± 3.0 cm^3 | –
27 | COc1cc2ncnc(Nc3ccc(F)c(Cl)c3)c2cc1OCCCN1CCOCC1 [Gefitinib] | 337.7 ± 3.0 cm^3 | – | –
28 | Nc1ccn([C@@H]2O[C@H](CO)[C@@H](O)C2(F)F)c(=O)n1 [Gemcitabine Hydrochloride] | 142.3 ± 7.0 cm^3 | – | –
29 | CN(C)c1ccc(C(=C2C=CC(=[N+](C)C)C=C2)c2ccc(N(C)C)cc2)cc1 [Gentian Violet] | – | – | Molar volume [2]: 340.9 ± 5.0 cm^3
30 | CN(C)C/C=C/C(=O)Nc1cc2c(Nc3ccc(F)c(Cl)c3)ncnc2cc1O[C@H]1CCOC1 [Gilotrif (Afatinib Dimaleate), Afatinib Dimaleate] | 351.9 ± 3.0 cm^3 | – | –
31 | CN1C(=O)[C@]23CC4=CC=C[C@H](O)[C@H]4N2C(=O)[C@@]1(CO)SS3 [Gliotoxin] | – | 186.5 ± 5.0 cm^3 | –
32 | CC(C)C[C@H](NC(=O)[C@@H](COC(C)(C)C)NC(=O)[C@H](Cc1ccc(O)cc1)NC(=O)[C@H](CO)NC(=O)[C@H](Cc1c[nH]c2ccccc12)NC(=O)[C@H](Cc1cnc[nH]1)NC(=O)[C@@H]1CCC(=O)N1)C(=O)N[C@@H](CCCNC(=N)N)C(=O)N1CCC[C@H]1C(=O)NNC(N)=O [Goserelin Acetate (Zoladex), Goserelin Acetate] | 844.7 ± 7.0 cm^3 | – | –
33 | CN1C2CCCC1CC(NC(=O)c1nn(C)c3ccccc13)C2 (stereo not shown) [Granisetron] | 234.8 ± 7.0 cm^3 | – | –
34 | COC1=CC(=O)C[C@@H](C)[C@]12Oc1c(Cl)c(OC)cc(OC)c1C2=O [Griseofulvin] | – | 255.1 ± 5.0 cm^3 | –
35 | CC(C)NCC(O)COc1cccc2ccccc12 (stereo not shown) [Hemangeol (Propranolol Hydrochloride), Propranolol Hydrochloride] | 237.1 ± 3.0 cm^3 | – | –
36 | CO[C@H]1[C@@H](OC)C[C@H](C)[C@@H](OC)C2=CC(=O)C=C(NC(=O)/C(C)=C/C=C\[C@H](OC)[C@@H](OC(N)=O)/C(C)=C/[C@@H]1C)C2=O [Herbimycin A] | – | 479.9 ± 5.0 cm^3 | –
37 | C=CCc1ccc(O)c(-c2ccc(O)c(CC=C)c2)c1 [Honokiol] | – | 240.4 ± 3.0 cm^3 | –
38 | CC[C@@]1(O)C(=O)OCc2c1cc1n(c2=O)Cc2cc3c(CN(C)C)c(O)ccc3nc2-1 [Hycamtin (Topotecan Hydrochloride), Topotecan Hydrochloride] | 281.3 ± 5.0 cm^3 | – | –
39 | NC(=O)NO [Hydrea (Hydroxyurea), Hydroxyurea] | 52.1 ± 3.0 cm^3 | – | –
